Test results reported in PubChem BioAssay AID330 (DTP/NCI, 2004).
Values joined by “and” are separate entries in the source; they are usually repeats but may differ in a detail not shown here. Identical values can stand only once. Toxic doses and inconclusive results are not listed. The calls were made as follows: active = survival T/C of 150% or more; inactive = T/C below 125% in these data.

Tested on: P388 leukemia ip, CD2F1 mice, survival T/C
Experiment: NCI In Vivo Anticancer Drug Screen. Data for tumor model P388 Leukemia (intraperitoneal) in CD2F1 (CDF1) mice
Conditions: endpoint: median survival time, higher = longer survival
How it was run: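 Mice carrying the transplanted tumor received test compound or vehicle. Survival was recorded in each group, and the value is the treated-group measurement divided by that of the vehicle-treated control group.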

[1] = dose: 50.0 mg/kg/injection, schedule: Q01DX009 (ip), vehicle: Klucel (hydroxypropylcellulose) (HPC)
[2] = dose: 100.0 mg/kg/injection, schedule: Q01DX009 (ip), vehicle: Klucel (hydroxypropylcellulose) (HPC)
[3] = dose: 200.0 mg/kg/injection, schedule: Q01DX009 (ip), vehicle: Klucel (hydroxypropylcellulose) (HPC)
[4] = dose: 25.0 mg/kg/injection, schedule: Q01DX009 (ip), vehicle: Klucel (hydroxypropylcellulose) (HPC)
[5] = dose: 50.0 mg/kg/injection, schedule: Q01DX005 (ip), vehicle: saline with Tween-80
[6] = dose: 100.0 mg/kg/injection, schedule: Q01DX005 (ip), vehicle: saline with Tween-80
[7] = dose: 200.0 mg/kg/injection, schedule: Q01DX005 (ip), vehicle: saline with Tween-80
[8] = dose: 100.0 mg/kg/injection, schedule: Q01DX009 (ip), vehicle: saline
[9] = dose: 200.0 mg/kg/injection, schedule: Q01DX009 (ip), vehicle: saline
[10] = dose: 50.0 mg/kg/injection, schedule: Q01DX005 (ip), vehicle: Klucel (hydroxypropylcellulose) (HPC)
[11] = dose: 100.0 mg/kg/injection, schedule: Q01DX005 (ip), vehicle: Klucel (hydroxypropylcellulose) (HPC)
[12] = dose: 200.0 mg/kg/injection, schedule: Q01DX005 (ip), vehicle: Klucel (hydroxypropylcellulose) (HPC)
[13] = dose: 6.25 mg/kg/injection, schedule: Q01DX005 (ip), vehicle: saline with Tween-80
[14] = dose: 12.5 mg/kg/injection, schedule: Q01DX005 (ip), vehicle: saline with Tween-80
[15] = dose: 25.0 mg/kg/injection, schedule: Q01DX005 (ip), vehicle: saline with Tween-80
[16] = dose: 60.0 mg/kg/injection, schedule: Q01DX005 (ip), vehicle: Klucel (hydroxypropylcellulose) (HPC)
[17] = dose: 240.0 mg/kg/injection, schedule: Q01DX005 (ip), vehicle: Klucel (hydroxypropylcellulose) (HPC)

Measured: T/C

CC1=CCC2(C)C(=O)CC3(C)C(CCC4C5(C)CCC(=O)C(C)(C)C5CCC43C)C2C1C (stereo unspecified)
inactive: dose: 1.75 mg/kg/injection, schedule: Q01DX009 (ip), vehicle: saline 103 % of control and 121 % of control | dose: 3.5 mg/kg/injection, schedule: Q01DX009 (ip), vehicle: saline 99 % of control and 114 % of control | dose: 7.0 mg/kg/injection, schedule: Q01DX009 (ip), vehicle: saline 110 % of control and 118 % of control

N#CC1=C(N)Oc2c(c(-c3ccccc3)nn2-c2ccccc2)C1c1ccccc1 (stereo unspecified)
inactive: [1] 100 % of control | [2] 105 % of control | [3] 100 % of control

CN1CCCSC1=S
inactive: dose: 6.25 mg/kg/injection, schedule: Q01DX009 (ip), vehicle: Klucel (hydroxypropylcellulose) (HPC) 111 % of control | dose: 12.5 mg/kg/injection, schedule: Q01DX009 (ip), vehicle: Klucel (hydroxypropylcellulose) (HPC) 97 % of control | [4] 106 % of control

CCC(O)C(C)C=O (stereo unspecified)
inactive: dose: 60.0 mg/kg/injection, schedule: Q01DX005 (ip), vehicle: saline 107 % of control | dose: 120.0 mg/kg/injection, schedule: Q01DX005 (ip), vehicle: saline 100 % of control | dose: 240.0 mg/kg/injection, schedule: Q01DX005 (ip), vehicle: saline 104 % of control

O=C1CCC(=O)Nc2ccc3nc4ccccc4c(c3c2)SCCCCCCCCCCCCSc2c3ccccc3nc3ccc(cc23)N1
inactive: [5] 110 % of control | [6] 97 % of control | [7] 107 % of control

CCOC(=O)CC(C(=O)OCC)C(=O)OCC
inactive: dose: 25.0 mg/kg/injection, schedule: Q01DX009 (ip), vehicle: saline 97 % of control | dose: 50.0 mg/kg/injection, schedule: Q01DX009 (ip), vehicle: saline 100 % of control | [8] 103 % of control | [9] 106 % of control

CCC1CN2CCO[Si](CC[Si](C)(C)C)(OCC2)O1 (stereo unspecified)
inactive: [10] 97 % of control | [11] 97 % of control | [12] 101 % of control and 104 % of control

COc1cc(NCCCCCCNC(C)C)c2ncccc2c1
inactive: [13] 100 % of control | [14] 102 % of control | [15] 95 % of control

O=S1(=O)CCC2CCCCC2C1 (stereo unspecified)
inactive: dose: 6.25 mg/kg/injection, schedule: Q01DX009 (ip), vehicle: saline with Tween-80 109 % of control | dose: 12.5 mg/kg/injection, schedule: Q01DX009 (ip), vehicle: saline with Tween-80 100 % of control

CCOC(=O)COc1cc2c(cc1C(C)c1ccc(OC)cc1)OCO2 (stereo unspecified)
inactive: [10] 104 % of control | [11] 100 % of control | [12] 94 % of control

CCOC(=O)C1CSC2(CC(C)CC(C)(C)C2)N1 (stereo unspecified)
inactive: [5] 106 % of control | [6] 107 % of control | [7] 104 % of control

CCn1c2ccccc2c2cc(N=Nc3cc(CN(C)C)c(O)c4ncccc34)ccc21
inactive: [5] 100 % of control | [6] 100 % of control | [7] 100 % of control

O=C1OC(c2cccnc2)OC(c2ccccc2)=C1C(=O)c1ccccc1 (stereo unspecified)
inactive: [16] 107 % of control | dose: 120.0 mg/kg/injection, schedule: Q01DX005 (ip), vehicle: Klucel (hydroxypropylcellulose) (HPC) 98 % of control | [17] 97 % of control

O=C(O)C(Cc1ccccc1)NP(=S)(c1ccccc1)c1ccccc1 (stereo unspecified)
inactive: [1] 110 % of control | [2] 97 % of control | [3] 106 % of control

O=C(NC(c1ccccc1)N1CCOCC1)c1ccccc1 (stereo unspecified)
inactive: dose: 50.0 mg/kg/injection, schedule: Q01DX005 (ip), vehicle: Klucel + Tween-80 108 % of control | dose: 100.0 mg/kg/injection, schedule: Q01DX005 (ip), vehicle: Klucel + Tween-80 112 % of control | dose: 200.0 mg/kg/injection, schedule: Q01DX005 (ip), vehicle: Klucel + Tween-80 114 % of control

CNC(=O)OCc1c(COC(=O)NC)c2n(c1C)CCS2(=O)=O
inactive: [15] 106 % of control | [5] 101 % of control | [6] 86 % of control | [7] 88 % of control

Cc1ccccc1N(C=O)c1ccccc1C
inactive: [8] 106 % of control | [9] 93 % of control | dose: 400.0 mg/kg/injection, schedule: Q01DX009 (ip), vehicle: saline 98 % of control

Cc1ccc(S(=O)(=O)Oc2ccc3sc4cccc(NCCN(C)C)c4c(=O)c3c2)cc1
inactive: [14] 104 % of control | [15] 93 % of control | [5] 90 % of control and 96 % of control | [6] 92 % of control and 94 % of control | [7] 92 % of control | dose: 400.0 mg/kg/injection, schedule: Q01DX005 (ip), vehicle: saline with Tween-80 94 % of control

CCOC1N(c2ccc(Cl)cc2)CN(CCCN(C)C)CC1(C)C (stereo unspecified)
inactive: dose: 50.0 mg/kg/injection, schedule: Q01DX009 (ip), vehicle: saline with Tween-80 104 % of control | dose: 100.0 mg/kg/injection, schedule: Q01DX009 (ip), vehicle: saline with Tween-80 104 % of control | dose: 200.0 mg/kg/injection, schedule: Q01DX009 (ip), vehicle: saline with Tween-80 117 % of control

OC1c2ccccc2-c2ccccc2C1O (stereo unspecified)
inactive: dose: 100.0 mg/kg/injection, schedule: Q04DX002 (ip), vehicle: saline with Tween-80 101 % of control and 102 % of control | dose: 200.0 mg/kg/injection, schedule: Q04DX002 (ip), vehicle: saline with Tween-80 101 % of control and 97 % of control | dose: 400.0 mg/kg/injection, schedule: Q04DX002 (ip), vehicle: saline with Tween-80 101 % of control

C=C(Br)S(=O)(=O)OCCCl
inactive: [13] 105 % of control | [14] 104 % of control

CCC(C)C(NC(=O)C(Cl)Cl)C(=O)O (stereo unspecified)
inactive: [10] 96 % of control | [11] 96 % of control | [12] 99 % of control

CCN(CC)C1CS(=O)(=O)OC2=C1CCCc1ccccc12 (stereo unspecified)
inactive: [4] 102 % of control | [1] 104 % of control | [2] 95 % of control

CN(N=O)C(=O)N[C@@H](C=O)[C@@H](O)[C@H](O)[C@H](O)CO
inactive: dose: 31.25 mg/kg/injection, schedule: Q01DX001 (ip), vehicle: other 105 % of control and 106 % of control | dose: 62.5 mg/kg/injection, schedule: Q01DX001 (ip), vehicle: other 105 % of control and 109 % of control | dose: 80.0 mg/kg/injection, schedule: Q04DX003 (ip), vehicle: citric acid 110 % of control | dose: 80.0 mg/kg/injection, schedule: Q04DX003 (ip), vehicle: other 108 % of control | dose: 120.0 mg/kg/injection, schedule: Q04DX003 (ip), vehicle: other 107 % of control and 114 % of control | dose: 125.0 mg/kg/injection, schedule: Q01DX001 (ip), vehicle: other 111 % of control and 117 % of control | dose: 180.0 mg/kg/injection, schedule: Q04DX003 (ip), vehicle: citric acid 119 % of control | dose: 180.0 mg/kg/injection, schedule: Q04DX003 (ip), vehicle: other 118 % of control and 122 % of control | dose: 240.0 mg/kg/injection, schedule: Q04DX003 (ip), vehicle: other 112 % of control and 120 % of control | dose: 500.0 mg/kg/injection, schedule: Q01DX001 (ip), vehicle: other 90 % of control

CCOC(=O)Cn1/c(=N/N=C/c2ccc([N+](=O)[O-])o2)sc2cc(OC)ccc21
inactive: dose: 3.75 mg/kg/injection, schedule: Q01DX005 (ip), vehicle: saline with Tween-80 97 % of control | dose: 7.5 mg/kg/injection, schedule: Q01DX005 (ip), vehicle: saline with Tween-80 90 % of control | [16] 87 % of control | [17] 86 % of control
